System: not given
Assay: not given
Conditions: not given
For `COC(=O)c1nc(-c2ccc(C(F)(F)F)nc2C)c(F)c(N)c1Cl` [Compound 35], the melting point was 160 °C.

System: Key Broadleaf Weed and Crop Species
Assay: Post-Emergent Test II (Table 5)
Type: in vivo
Conditions: Abutilon theophrasti, post-emergence, 336 h, ABUTH: velvetleaf (Abutilon theophrasti), application rate 70 (kg ai/ha; footnote: g ai/ha), read-out: Visual Growth Reduction (%) 14 Days After Application ABUTH
How it was run: (§1)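 Visual injury ratings (0 = no injury, 100 = complete kill) taken 14 days after treatment, relative to untreated controls. Compounds, in an acetone/DMSO aqueous carrier with crop oil and surfactant, were applied by track sprayer at 187 L/ha, in a twofold dilution series from the top rate, to plants at the first to second true-leaf stage.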
With `COC(=O)c1nc(-c2ccc(C(F)(F)F)nc2C)c(F)c(N)c1Cl` [Compound 35] the pest or weed control at 70 g/ha was 0 to 29%.

Same assay, conditions: Abutilon theophrasti, post-emergence, 336 h, ABUTH: velvetleaf (Abutilon theophrasti), application rate 140 (kg ai/ha; footnote: g ai/ha), read-out: Visual Growth Reduction (%) 14 Days After Application ABUTH
`COC(=O)c1nc(-c2ccc(C(F)(F)F)nc2C)c(F)c(N)c1Cl` [Compound 35] showed a pest or weed control at 140 g/ha of 0 to 29%.

Same assay, conditions: Amaranthus retroflexus, post-emergence, 336 h, AMARE: redroot pigweed (Amaranthus retroflexus), application rate 70 (kg ai/ha; footnote: g ai/ha), read-out: Visual Growth Reduction (%) 14 Days After Application AMARE
`COC(=O)c1nc(-c2ccc(C(F)(F)F)nc2C)c(F)c(N)c1Cl` [Compound 35] gave a pest or weed control at 70 g/ha of 0 to 29%.

Same assay, conditions: Amaranthus retroflexus, post-emergence, 336 h, AMARE: redroot pigweed (Amaranthus retroflexus), application rate 140 (kg ai/ha; footnote: g ai/ha), read-out: Visual Growth Reduction (%) 14 Days After Application AMARE
`COC(=O)c1nc(-c2ccc(C(F)(F)F)nc2C)c(F)c(N)c1Cl` [Compound 35] gave a pest or weed control at 140 g/ha of 0 to 29%.

Same assay, conditions: Brassica napus, post-emergence, 336 h, BRSSS: oilseed rape, canola (Brassica napus), application rate 70 (kg ai/ha; footnote: g ai/ha), read-out: Visual Growth Reduction (%) 14 Days After Application BRSSS
Work on `COC(=O)c1nc(-c2ccc(C(F)(F)F)nc2C)c(F)c(N)c1Cl` [Compound 35] yielded a pest or weed control at 70 g/ha of 0 to 29%.

Same assay, conditions: Brassica napus, post-emergence, 336 h, BRSSS: oilseed rape, canola (Brassica napus), application rate 140 (kg ai/ha; footnote: g ai/ha), read-out: Visual Growth Reduction (%) 14 Days After Application BRSSS
Work on `COC(=O)c1nc(-c2ccc(C(F)(F)F)nc2C)c(F)c(N)c1Cl` [Compound 35] yielded a pest or weed control at 140 g/ha of 0 to 29%.

Same assay, conditions: Chenopodium album, post-emergence, 336 h, CHEAL: lambsquarters (Chenopodium album), application rate 70 (kg ai/ha; footnote: g ai/ha), read-out: Visual Growth Reduction (%) 14 Days After Application CHEAL
In the case of `COC(=O)c1nc(-c2ccc(C(F)(F)F)nc2C)c(F)c(N)c1Cl` [Compound 35], the pest or weed control at 70 g/ha is reported as 0 to 29%.

Same assay, conditions: Chenopodium album, post-emergence, 336 h, CHEAL: lambsquarters (Chenopodium album), application rate 140 (kg ai/ha; footnote: g ai/ha), read-out: Visual Growth Reduction (%) 14 Days After Application CHEAL
With `COC(=O)c1nc(-c2ccc(C(F)(F)F)nc2C)c(F)c(N)c1Cl` [Compound 35] the pest or weed control at 140 g/ha was 0 to 29%.

Same assay, conditions: Euphorbia heterophylla, post-emergence, 336 h, EPHHL: wild poinsettia (Euphorbia heterophylla), application rate 70 (kg ai/ha; footnote: g ai/ha), read-out: Visual Growth Reduction (%) 14 Days After Application EPHHL
For `COC(=O)c1nc(-c2ccc(C(F)(F)F)nc2C)c(F)c(N)c1Cl` [Compound 35], the pest or weed control at 70 g/ha was 0 to 29%.

Same assay, conditions: Euphorbia heterophylla, post-emergence, 336 h, EPHHL: wild poinsettia (Euphorbia heterophylla), application rate 140 (kg ai/ha; footnote: g ai/ha), read-out: Visual Growth Reduction (%) 14 Days After Application EPHHL
`COC(=O)c1nc(-c2ccc(C(F)(F)F)nc2C)c(F)c(N)c1Cl` [Compound 35] showed a pest or weed control at 140 g/ha of 0 to 29%.

Same assay, conditions: Helianthus annuus, post-emergence, 336 h, HELAN: sunflower (Helianthus annuus), application rate 70 (kg ai/ha; footnote: g ai/ha), read-out: Visual Growth Reduction (%) 14 Days After Application HELAN
Work on `COC(=O)c1nc(-c2ccc(C(F)(F)F)nc2C)c(F)c(N)c1Cl` [Compound 35] yielded a pest or weed control at 70 g/ha of 0 to 29%.

Same assay, conditions: Helianthus annuus, post-emergence, 336 h, HELAN: sunflower (Helianthus annuus), application rate 140 (kg ai/ha; footnote: g ai/ha), read-out: Visual Growth Reduction (%) 14 Days After Application HELAN
Work on `COC(=O)c1nc(-c2ccc(C(F)(F)F)nc2C)c(F)c(N)c1Cl` [Compound 35] yielded a pest or weed control at 140 g/ha of 0 to 29%.

Same assay, conditions: Viola tricolor, post-emergence, 336 h, VIOTR: wild pansy (Viola tricolor), application rate 70 (kg ai/ha; footnote: g ai/ha), read-out: Visual Growth Reduction (%) 14 Days After Application VIOTR
With `COC(=O)c1nc(-c2ccc(C(F)(F)F)nc2C)c(F)c(N)c1Cl` [Compound 35] the pest or weed control at 70 g/ha was 0 to 29%.

Same assay, conditions: Viola tricolor, post-emergence, 336 h, VIOTR: wild pansy (Viola tricolor), application rate 140 (kg ai/ha; footnote: g ai/ha), read-out: Visual Growth Reduction (%) 14 Days After Application VIOTR
`COC(=O)c1nc(-c2ccc(C(F)(F)F)nc2C)c(F)c(N)c1Cl` [Compound 35] showed a pest or weed control at 140 g/ha of 0 to 29%.

System: Key Grass and Sedge Weeds as well as Grass Crops
Assay: Post-Emergent Test II (Table 6)
Type: in vivo
Conditions: post-emergence, 336 h, CYPSS, 70 g ai/ha, 14 days after application, read-out: Visual Growth Reduction (%) 14 Days After Application CYPSS
How it was run: as §1
Compound `COC(=O)c1nc(-c2ccc(C(F)(F)F)nc2C)c(F)c(N)c1Cl` [Compound 35] has a pest or weed control at 70 g/ha of 0 to 29%.

Same assay, conditions: post-emergence, 336 h, CYPSS, 140 g ai/ha, 14 days after application, read-out: Visual Growth Reduction (%) 14 Days After Application CYPSS
`COC(=O)c1nc(-c2ccc(C(F)(F)F)nc2C)c(F)c(N)c1Cl` [Compound 35] gave a pest or weed control at 140 g/ha of 0 to 29%.

Same assay, conditions: post-emergence, 336 h, DIGSA: crabgrass (Digitaria sanguinalis), 70 g ai/ha, 14 days after application, read-out: Visual Growth Reduction (%) 14 Days After Application DIGSA
`COC(=O)c1nc(-c2ccc(C(F)(F)F)nc2C)c(F)c(N)c1Cl` [Compound 35] showed a pest or weed control at 70 g/ha of 0 to 29%.

Same assay, conditions: post-emergence, 336 h, DIGSA: crabgrass (Digitaria sanguinalis), 140 g ai/ha, 14 days after application, read-out: Visual Growth Reduction (%) 14 Days After Application DIGSA
Work on `COC(=O)c1nc(-c2ccc(C(F)(F)F)nc2C)c(F)c(N)c1Cl` [Compound 35] yielded a pest or weed control at 140 g/ha of 0 to 29%.

Same assay, conditions: post-emergence, 336 h, ECHSS, 70 g ai/ha, 14 days after application, read-out: Visual Growth Reduction (%) 14 Days After Application ECHSS
In the case of `COC(=O)c1nc(-c2ccc(C(F)(F)F)nc2C)c(F)c(N)c1Cl` [Compound 35], the pest or weed control at 70 g/ha is reported as 0 to 29%.

Same assay, conditions: post-emergence, 336 h, ECHSS, 140 g ai/ha, 14 days after application, read-out: Visual Growth Reduction (%) 14 Days After Application ECHSS
Work on `COC(=O)c1nc(-c2ccc(C(F)(F)F)nc2C)c(F)c(N)c1Cl` [Compound 35] yielded a pest or weed control at 140 g/ha of 0 to 29%.

Same assay, conditions: post-emergence, 336 h, ORYSS (crop), 70 g ai/ha, 14 days after application, read-out: Visual Growth Reduction (%) 14 Days After Application ORYSS
`COC(=O)c1nc(-c2ccc(C(F)(F)F)nc2C)c(F)c(N)c1Cl` [Compound 35] gave a pest or weed control at 70 g/ha of 0 to 29%.

Same assay, conditions: post-emergence, 336 h, ORYSS (crop), 140 g ai/ha, 14 days after application, read-out: Visual Growth Reduction (%) 14 Days After Application ORYSS
`COC(=O)c1nc(-c2ccc(C(F)(F)F)nc2C)c(F)c(N)c1Cl` [Compound 35] showed a pest or weed control at 140 g/ha of 0 to 29%.

Same assay, conditions: post-emergence, 336 h, SETFA: giant foxtail (Setaria faberi), 70 g ai/ha, 14 days after application, read-out: Visual Growth Reduction (%) 14 Days After Application SETFA
`COC(=O)c1nc(-c2ccc(C(F)(F)F)nc2C)c(F)c(N)c1Cl` [Compound 35] gave a pest or weed control at 70 g/ha of 0 to 29%.

Same assay, conditions: post-emergence, 336 h, SETFA: giant foxtail (Setaria faberi), 140 g ai/ha, 14 days after application, read-out: Visual Growth Reduction (%) 14 Days After Application SETFA
`COC(=O)c1nc(-c2ccc(C(F)(F)F)nc2C)c(F)c(N)c1Cl` [Compound 35] gave a pest or weed control at 140 g/ha of 0 to 29%.

Same assay, conditions: post-emergence, 336 h, SORVU: grain sorghum (Sorghum vulgare), 70 g ai/ha, 14 days after application, read-out: Visual Growth Reduction (%) 14 Days After Application SORVU
`COC(=O)c1nc(-c2ccc(C(F)(F)F)nc2C)c(F)c(N)c1Cl` [Compound 35] showed a pest or weed control at 70 g/ha of 0 to 29%.

Same assay, conditions: post-emergence, 336 h, SORVU: grain sorghum (Sorghum vulgare), 140 g ai/ha, 14 days after application, read-out: Visual Growth Reduction (%) 14 Days After Application SORVU
Compound `COC(=O)c1nc(-c2ccc(C(F)(F)F)nc2C)c(F)c(N)c1Cl` [Compound 35] has a pest or weed control at 140 g/ha of 0 to 29%.

Same assay, conditions: post-emergence, 336 h, TRZSS (crop), 70 g ai/ha, 14 days after application, read-out: Visual Growth Reduction (%) 14 Days After Application TRZSS
`COC(=O)c1nc(-c2ccc(C(F)(F)F)nc2C)c(F)c(N)c1Cl` [Compound 35] gave a pest or weed control at 70 g/ha of 0 to 29%.

Same assay, conditions: post-emergence, 336 h, TRZSS (crop), 140 g ai/ha, 14 days after application, read-out: Visual Growth Reduction (%) 14 Days After Application TRZSS
Compound `COC(=O)c1nc(-c2ccc(C(F)(F)F)nc2C)c(F)c(N)c1Cl` [Compound 35] has a pest or weed control at 140 g/ha of 0 to 29%.

Same assay, conditions: post-emergence, 336 h, ZEAMX: maize, corn (Zea mays), 70 g ai/ha, 14 days after application, read-out: Visual Growth Reduction (%) 14 Days After Application ZEAMX
Compound `COC(=O)c1nc(-c2ccc(C(F)(F)F)nc2C)c(F)c(N)c1Cl` [Compound 35] has a pest or weed control at 70 g/ha of 0 to 29%.

Same assay, conditions: post-emergence, 336 h, ZEAMX: maize, corn (Zea mays), 140 g ai/ha, 14 days after application, read-out: Visual Growth Reduction (%) 14 Days After Application ZEAMX
Work on `COC(=O)c1nc(-c2ccc(C(F)(F)F)nc2C)c(F)c(N)c1Cl` [Compound 35] yielded a pest or weed control at 140 g/ha of 0 to 29%.

Reference: patent US10765114B2, “4-amino-6-(pyridyl and 2-substitutedphenyl)-picolinates and 6-amino-2-(pyridyl and 2-substitutedphenyl)-pyrimidine-4-carboxylates and their use as herbicides” (Dow AgroSciences LLC, priority 2013, dated 2020)
